Measurements published in patent US5306496A, “Antibiotics NK374186A, NK374186B, NK374186B3 and NK374186C3, process for producing the same, and use of the same” (Nippon Kayaku Kabushiki Kaisha, priority 1991, dated 1994).
Converted amounts (≈) assume the structure as drawn.

What was measured:
[1] = Solubility; format: physicochemical
[2] = system: CDF-1 mice; assay: Toxicity, repeated intraperitoneal administration; format: in vivo; settings: 100 mg/kg intraperitoneal once a day for 10 days
Method: 100 mg/kg of NK374186A and NK374186B are intraperitoneally administered to CDF-1 mice (male, aged 8 weeks) repetitively once a day for 10 days. Each test compound is administered in the form of a solution in 3.5% DMSO+6.5% Tween+90% physiological saline.

[3] = system: Li-7, A2780 and 2780^AD; assay: Cell growth suppressing activity (MTT method), all cell lines, in words; format: cell-based, human; settings: each cell line
Method: (§1) Cells are incubated in an RPMI 1640 medium containing 10% of fetal calf serum at 37° C. under 5% of CO2. Then these cells are sowed in a 96-well plate and pre-incubated for 1 day, followed by the addition of each test compound. The treatment with the test compound was carried out for 2 days and the activity of suppressing the cell growth was evaluated by the MTT method.

[4] = system: mouse lymphoblast formation with LPS and Con A; assay: Mouse lymphoblast formation with LPS and Con A, summary in words; format: cell-based, BALB/C mouse
Method: (§2) An RPMI 1640 medium containing 20% of fetal calf serum, 25 mM of Hepes buffer, 100 μg/ml of streptomycin and 100 U/ml of penicillin G is used. The incubation is carried out in a 96-well flat-bottomed microplate (COSTAR). As a mitogen, lipopolysaccharide (LPS) and concanavalin A (Con A) are used respectively at final concentrations of 100 μg/ml and 5 μg/ml.
(§3) The spleen of a BALB/C mouse (female,>20 weeks in age) is taken out and a single-cell suspension is prepared. After removing erythrocytes by hyper shock, the suspension is used as such for the treatment with LPS. For the treatment with Con A, on the other hand, the suspension is passed through a Nylon Fiber (a product of Wako Pure Chemicals, Inc.) for separating T cells. 2×10^5 /well of the spleen cells and each test compound of the concentration as specified above are added to thereby give a total volume of 0.2 ml/well, followed by incubation for 72 hours. 8 hours before the completion of the incubation, 37 KBq/well of [^3 H]-thymidine is added and the thymidine uptake in the cells is measured. The effect is evaluated based on the ratio of the [^3 H]-thymidine uptake of a test group to that of a control group ["Meneki Jikken Sosa-ho (Procedures of Immunological Tests)", ed. by Japan Assoc. of Immunol., pages 2267-2276].

[5] = system: 2780^AD; assay: Cell growth suppressing activity (MTT method), adriamycin-resistant strain; format: cell-based, human; settings: adriamycin-resistant strain obtained from A2780, 2 days
Method: as §1

[6] = system: mouse lymphoblast formation with Con A (T cells); assay: Mouse lymphoblast formation with Con A ([^3 H]-thymidine uptake); format: cell-based, BALB/C mouse; settings: Con A 5 μg/ml, 72 hours, control = 100
Method: as §2, §3

[7] = system: Bacilli, Staphylococcus and Micrococcus; assay: Antibacterial activity, summary in words; format: cell-based; settings: on Bacilli, agar dilution method
Method: (§4) The antibacterial and antifungal activities of each antibiotic are expressed in minimum inhibitory concentration (MIC) determined by the agar dilution method. In the antibacterial activity test, each test microorganism is inoculated onto a Muller/Hinton medium and cultured therein at 37° C. overnight to observe the growth of the microorganism. In the antifungal activity test, each test microorganism is inoculated onto a Czapek medium and cultured therein at 27° C. for 2 to 3 days, followed by the observation of the growth of the microorganism.

[8] = system: transplanted section/host reaction (GVH); assay: Transplanted section/host reaction (GVH), spleen weighing method; format: in vivo, BDF mouse; settings: for Spleen/total body weight ± S.D. / Index (spleen/total body weight): subcutaneous, 3 days; for Spleen/total body weight ± S.D.: seventh day after transplantation; for Index (spleen/total body weight): untreated = 1.00
Method: This test is carried out in accordance with the spleen weighing method of Ford et al. [Ford, W. L., et al., Handbook of Experimental Immunology 30 (ed. by Weir, D. M.), Blackwell Scientific Publications, (1978), page 1]. 5×10^6 spleen cells obtained from a donor C57BL/6 mouse (male, aged 8 weeks) are transplanted into the peritoneal cavity of a BDF mouse (male, aged 7 weeks) which is the Fl hybrid receptor. At the same time, NK374186 and a control drug are dissolved in a solvent (0.25 % gum arabic) and subcutaneously injected into the dorsum of the receptor mouse. As a control, the solvent alone is also subcutaneously injected into the dorsum of the mouse. The same administration is effected on the next day and on the following day. On the seventh day after the transplantation, the spleen of the animal is weighed.

[9] = system: mouse lymphoblast formation with LPS (spleen cells); assay: Mouse lymphoblast formation with LPS ([^3 H]-thymidine uptake); format: cell-based, BALB/C mouse; settings: 72 hours, control = 100
Method: as §2, §3

[10] = system: mammalian cells; assay: Suppressing the growth of mammalian cells, in words; format: cell-based
[11] = system: Aspergillus niger IFO 4407; assay: Antifungal activity, MIC by agar dilution method; format: cell-based; settings: Czapek medium, 27° C., 2 to 3 days
Method: as §4

[12] = system: Trycophyton mentagrophytes IFO 5466; assay: Antifungal activity, MIC by agar dilution method; format: cell-based; settings: Czapek medium, 27° C., 2 to 3 days
Method: as §4

[13] = system: Candida albicans IFO 1385; assay: Antifungal activity, MIC by agar dilution method; format: cell-based; settings: Czapek medium, 27° C., 2 to 3 days
Method: as §4

[14] = system: Penicillium chrysogenum IFO 8645; assay: Antifungal activity, MIC by agar dilution method; format: cell-based; settings: Czapek medium, 27° C., 2 to 3 days
Method: as §4

[15] = system: Botrytis fabae IFO 6183; assay: Antifungal activity, MIC by agar dilution method; format: cell-based; settings: Czapek medium, 27° C., 2 to 3 days
Method: as §4

[16] = system: Mucor javanicus IFO 4569; assay: Antifungal activity, MIC by agar dilution method; format: cell-based; settings: Czapek medium, 27° C., 2 to 3 days
Method: as §4

[17] = system: Rhizopus hanguchao IFO 4749; assay: Antifungal activity, MIC by agar dilution method; format: cell-based; settings: Czapek medium, 27° C., 2 to 3 days
Method: as §4

[18] = Antibacterial activity, MIC by agar dilution method; format: cell-based; settings: Mycobacterium luteus ATCC 9341; Muller/Hinton medium, 37° C., overnight
Method: as §4

[19] = system: Escherichia coli K-12; assay: as above; format: cell-based; settings: Muller/Hinton medium, 37° C., overnight
Method: as §4

[20] = system: Bacillus megaterium ATCC 14945; assay: as above; format: cell-based; settings: Muller/Hinton medium, 37° C., overnight
Method: as §4

[21] = system: Staphylococcus aureus FDA 209P; assay: as above; format: cell-based; settings: Muller/Hinton medium, 37° C., overnight
Method: as §4

[22] = system: Bacillus subtilis IAM 1072; assay: as above; format: cell-based; settings: Muller/Hinton medium, 37° C., overnight
Method: as §4

[23] = system: Bacillus subtilis ATCC 6633; assay: as above; format: cell-based; settings: Muller/Hinton medium, 37° C., overnight
Method: as §4

[24] = system: Micrococcus flavus ATCC 10240; assay: as above; format: cell-based; settings: Muller/Hinton medium, 37° C., overnight
Method: as §4

[25] = system: Escherichia coli NIHJ; assay: as above; format: cell-based; settings: Muller/Hinton medium, 37° C., overnight
Method: as §4

[26] = system: Li-7; assay: Cell growth suppressing activity (MTT method); format: cell-based; settings: Li-7, human hepatic cancer, 2 days
Method: as §1

[27] = system: A2780; assay: Cell growth suppressing activity (MTT method); format: cell-based; settings: A2780, human ovarian cancer, 2 days
Method: as §1

## C=CC(C)(C)[C@H](NC(=O)[C@H](C)[C@H](O)[C@H](C)[C@H](O)CCCCCCCCCCCCC)C(=O)N[C@H](C(=O)N[C@@H](C=O)C(=O)O)[C@@H](C)O [NK374186B]
[1]
  solubility: soluble in lower alcohols, chloroform and ethyl acetate
[2]
  death of mice: none of these compounds causes the death of mice
  toxicity: low toxicity
[2]; versus solvent control group
  clinical conditions: no difference from those of the solvent control group
[3]
  cell growth suppression: suppress the growth of each cell line
[4]; at a concentration of 10 μg/ml or above
  lymphoblast formation: potently suppress the same at a concentration of 10 μg/ml or above
[4]; at a lower concentration
  lymphoblast formation: promote the lymphoblast formation with LPS and Con A at a lower concentration
[5]
  IC50: 33 µg/mL (≈ 50.3 µM)
[6]; 0.1 μg/ml
  Function index, Con A: 133.7%
[6]; 1 μg/ml
  Function index, Con A: 168.8%
[6]; 10 μg/ml
  Function index, Con A: 111.6%
[6]; 100 μg/ml
  Function index, Con A: 31.5%
[7]
  antibacterial activity: potent antibacterial activity on Bacilli, Staphylococcus and Micrococcus
[8]; 0.5 mg/kg
  Spleen/total body weight ± S.D.: 8.24 ± 1.54 ×10^-3
  Index (spleen/total body weight): 1.74
[8]; 5 mg/kg
  Spleen/total body weight ± S.D.: 11.32 ± 3.61 ×10^-3
[8]; 5 mg/kg, * printed
  Index (spleen/total body weight): 2.40
[8]; 50 mg/kg
  Spleen/total body weight ± S.D.: 12.63 ± 3.37 ×10^-3
[8]; 50 mg/kg, * (A), ** (B) printed
  Index (spleen/total body weight): 2.67
[8]; in words
  GVH reaction: significantly enhanced
  spleen/total body weight ratio: increased depending on the dose
[9]; 0.1 μg/ml, LPS 100 μg/ml
  Function index, LPS: 156.3%
[9]; 1 μg/ml, LPS 100 μg/ml
  Function index, LPS: 156.3%
[9]; 10 μg/ml, LPS 100 μg/ml
  Function index, LPS: 94.7%
[9]; 100 μg/ml
  Function index, LPS: 0.8%
[10]
  activity of suppressing the growth of mammalian cells: weak activity of suppressing the growth of mammalian cells
[11]
  MIC: > 100 µg/mL
[12]
  MIC: > 100 µg/mL
[13]
  MIC: > 100 µg/mL
[14]
  MIC: > 100 µg/mL
[15]
  MIC: > 100 µg/mL
[16]
  MIC: > 100 µg/mL
[17]
  MIC: > 100 µg/mL
[18]
  MIC: > 100 µg/mL
[19]
  MIC: > 100 µg/mL
[20]
  MIC: 6.25 µg/mL (≈ 9.53 µM)
[21]
  MIC: 3.13 µg/mL (≈ 4.77 µM)
[22]
  MIC: 6.25 µg/mL (≈ 9.53 µM)
[23]
  MIC: > 100 µg/mL
[24]
  MIC: 3.13 µg/mL (≈ 4.77 µM)
[25]
  MIC: > 100 µg/mL
[26]
  IC50: 7.0 µg/mL (≈ 10.7 µM)
[27]
  IC50: 6.6 µg/mL (≈ 10.1 µM)
